{"source": "paper PMC12080252", "about": "“Daphnia magna as an Alternative Model for (Simultaneous) Bioaccumulation and Chronic Toxicity Assessment—Controlled Exposure Study Indicates High Hazard of Heterocyclic PAHs” (Environmental Science & Technology, 2025)", "key": {"[1]": {"test": "Chronic reproduction toxicity test (OECD 211) with passive dosing", "assay_type": "in vivo, Daphnia magna", "conditions": "Daphnia magna, in vivo, other: waterborne exposure by passive dosing from PDMS disks, 21-day test, read-out: % offspring mortality of total offspring", "method": "(§1) Chronic toxicity tests with D. magna were performed according to the OECD guideline 211^2 using the passive dosing method. Two days before the tests, the exposure solution was predosed by shaking 10 PDMS disks loaded with the test substance in 1 L of medium for 48 h. Each test vessel (250 mL) was first flushed with the dosed solution to equilibrate the vessel walls, then filled with 100 mL of test solution, one PDMS disk, and one juvenile D. magna (<24 h old). The tests were conducted in loosely closed bottles to allow for adequate gas exchange and limit evaporation. The exposure medium was changed three times per week, and the animals were fed D. subspicatus daily (0.2 mg C/Daphnia/day). The number of offspring per adult and behavioral or physiological effects (e.g., size, movement, unhatched eggs) were recorded daily (except weekends). Dissolved oxygen, pH and temperature were also measured each week.\n(§2) Tests were performed under static conditions (20 °C, 16:8 h light/dark cycle, 1 klux). Each compound was tested in 10 replicates for controls and limit tests (a single high concentration exposure to screen for significant toxic effects) and with 6 or 10 replicates for concentration–response tests. Reuse of silicone disks was included in some experiments (Table S3). Reproductive inhibition was assessed by counting offspring over 21 days. The number of offspring per mother in treatment groups was compared to controls, and the percent inhibition per replicate was used to generate concentration–response curves. A minimum of five concentrations per compound were tested to determine EC10, EC20, and EC50 values. For each test, three sets of polymers were rotated between loading, dosing, and exposure stages (Figure S2). Initial (before animal and food addition) and final (after 2–3 days of exposure, just before the medium change) water concentrations (CW) were monitored, with the latter collected after centrifugation to remove biomass (e.g., algae, carapaces, or feces).\n(§3) All data are presented as average ± standard deviation. Student’s t test was used to analyze significance (p-value >0.05 considered insignificant). Concentration–response curve parameters (effective concentrations and confidence limits) and plots were generated using GraphPad Prism software (V6.01, GraphPad Software, La Jolla, CA, USA). The exposure concentrations were log10 transformed before fitting. Then a four parameters logistic model with variable slope was used to obtain EC10, EC20 and EC50 (see section S5 in SI file for details). Effective chemical activities (EA50) for chronic toxicity were calculated as follows: [drawing 1] 1 […]\n(§4) S5. Concentration-response curve (CRC) fitting procedure\n(§5) GraphPad Prism version 9.5.1 was used to fit CRC and obtain EC10, EC20, EC50 values and their confidence intervals. The exposure concentrations were log10 transformed before fitting. Then a four parameters logistic model with variable slope was used that describes the response as a function of following four parameters: minimum response (the Bottom), maximum response (the Top), the concentration required to cause a response half-way between the minimum and maximum (the EC50) and the slope of the curve […]\n(§6) concentration. The Top was constrained to 100, the Bottom was constrained to 0, the HillSlope was not […]\n(§7) !\"# %& = !\"# %&* − , × !\"# 3 * 4\n(§8) (, + ,((!\"# %&'(<=)×-.!!/!\"01)\n(§9) Figure S7 Concentration-response curves of four NSO-PAHs based on reproductive inhibition during 21-day chronic toxicity tests with D. magna.\n(§10) (1 picture or pasted object on this page, not shown here)"}, "Daphnia magna": {"test_system": "Daphnia magna", "test": "Chronic reproduction toxicity test (OECD 211) with passive dosing", "assay_type": "in vivo", "conditions": "for EC10: 21-day reproduction inhibition; for % inhibition, avr.: average of vessels; for #live offspring per mother, Total: one value per vessel; for wet weight of parent daphnids, change relative to control: end of 21-d exposure", "method": "as §1, §2, §3, §4, §5, §6, §7, §8, §9, §10"}, "D. magna": {"test_system": "D. magna", "conditions": "controlled exposure conditions; cited from earlier work"}, "[2]": {"conditions": "DNF 0.2 µg/L (0.125 g/L methanol), 21 days"}, "[3]": {"conditions": "DNF 0.41 µg/L (0.5 g/L methanol), 21 days"}, "[4]": {"conditions": "DNF 1.24 µg/L (1 g/L methanol), 21 days"}, "[5]": {"conditions": "DNF […] (0.25 g/L methanol), 21 days"}, "[6]": {"conditions": "DNF avr. medium concentration 1.35 µg/L, conc. of methanol for dosing 1.5 g/L, 21 days, single vessels 1-6 (replicates)"}}, "note": "Several values for one entry are separate records, joined by “and”; a condition that tells them apart may be missing. Identical values can stand only once.", "data": [{"smiles": "c1ccc2c(c1)ccc1oc3ccc4ccccc4c3c12", "note": "[DNF, dinaphtho[2,1-b:1′,2′-d]furan]", "values": [{"measurement": "mortality at 21 days, 0.18 µg/L", "setting": "[1]; 0.18 µg/L (Fig. S8)", "value": 2.6, "unit": "%"}, {"measurement": "mortality at 21 days, 0.24 µg/L", "setting": "[1]; 0.24 µg/L (Fig. S8)", "value": 5, "unit": "%"}, {"measurement": "mortality at 21 days, 0.39 µg/L", "setting": "[1]; 0.39 µg/L (Fig. S8)", "value": 5.1, "unit": "%"}, {"measurement": "mortality at 21 days, 1.16 µg/L", "setting": "[1]; 1.16 µg/L (Fig. S8)", "value": 11.8, "unit": "%"}, {"measurement": "mortality at 21 days, 1.3 µg/L", "setting": "[1]; 1.30 µg/L (Fig. S8)", "value": 16.7, "unit": "%"}, {"measurement": "mortality at 21 days, 1.44 µg/L", "setting": "[1]; 1.44 µg/L (Fig. S8)", "value": 42.2, "unit": "%"}, {"measurement": "EC10", "setting": "Daphnia magna; 97.5-2.5% confidence interval in brackets", "value": "0.14 (0.05-0.28) μg L^-1"}, {"measurement": "EC10", "setting": "Daphnia magna; confidence interval in brackets", "value": "0.52 (0.18-1.03) nmol L^-1"}, {"measurement": "growth of parent D. magna (wet weight)", "setting": "Daphnia magna; 21-day test, p-value <0.05", "value": "did not except at saturation"}, {"measurement": "LOEC (lowest observed effect concentration, reproduction inhibition)", "setting": "Daphnia magna; 21 days, p-value <0.05 vs controls", "value": 0.2, "unit": "μg L^–1"}, {"measurement": "#average live offspring", "setting": "Daphnia magna; [2]", "value": 75}, {"measurement": "%offspring mortality", "setting": "Daphnia magna; [2]", "value": 2.61, "unit": "%"}, {"measurement": "% inhibition, avr.", "setting": "Daphnia magna; [2]", "value": 12.9, "unit": "%"}, {"measurement": "#total live offspring", "setting": "Daphnia magna; DNF 0.2 µg/L (0.125 g/L methanol), 21 days, sum of all vessels", "value": 447}, {"measurement": "% inhibition (per vessel)", "setting": "Daphnia magna; DNF 0.2 µg/L (0.125 g/L methanol), live offspring vs controls, 21 days, per vessel", "value": 15.8, "unit": "%"}, {"measurement": "#average live offspring", "setting": "Daphnia magna; [3]", "value": 63}, {"measurement": "%offspring mortality", "setting": "Daphnia magna; [3]", "value": 5.09, "unit": "%"}, {"measurement": "% inhibition, avr.", "setting": "Daphnia magna; [3]", "value": 25.8, "unit": "%"}, {"measurement": "#total live offspring", "setting": "Daphnia magna; DNF 0.41 µg/L (0.5 g/L methanol), 21 days, sum of all vessels", "value": 317}, {"measurement": "mother animal mortality", "setting": "Daphnia magna; DNF 0.41 µg/L (0.5 g/L methanol), vessel 3, day 5", "value": "dead"}, {"measurement": "#average live offspring", "setting": "Daphnia magna; [4]", "value": 59}, {"measurement": "%offspring mortality", "setting": "Daphnia magna; [4]", "value": 11.81, "unit": "%"}, {"measurement": "% inhibition, avr.", "setting": "Daphnia magna; [4]", "value": 31.6, "unit": "%"}, {"measurement": "#total live offspring", "setting": "Daphnia magna; DNF 1.24 µg/L (1 g/L methanol), 21 days, sum of all vessels", "value": 351}, {"measurement": "#average live offspring", "setting": "Daphnia magna; [5]", "value": 69}, {"measurement": "%offspring mortality", "setting": "Daphnia magna; [5]", "value": 4.95, "unit": "%"}, {"measurement": "% inhibition, avr.", "setting": "Daphnia magna; [5]", "value": 19.1, "unit": "%"}, {"measurement": "#total live offspring", "setting": "Daphnia magna; DNF […] (0.25 g/L methanol), 21 days, sum of all vessels", "value": 346}, {"measurement": "mother animal mortality", "setting": "Daphnia magna; DNF […] (0.25 g/L methanol), vessel 6, day 5", "value": "dead"}, {"measurement": "#live offspring per mother, Total", "setting": "Daphnia magna; DNF avr. medium concentration 0.2 µg/L (methanol for dosing 0.125 g/L), 21 days", "value": "75 and 64 and 72 and 66 and 98"}, {"measurement": "#live offspring per mother, Total", "setting": "Daphnia magna; DNF avr. medium concentration 0.41 µg/L (methanol for dosing 0.5 g/L), 21 days", "value": "59 and 75 and 67 and 55 and 61"}, {"measurement": "#live offspring per mother, Total", "setting": "Daphnia magna; DNF avr. medium concentration 1.24 µg/L (methanol for dosing 1 g/L), 21 days", "value": "62 and 51 and 53 and 60 and 50 and 75"}, {"measurement": "%offspring mortality", "setting": "Daphnia magna; DNF avr. medium concentration 1.35 µg/L, conc. of methanol for dosing 1.5 g/L, 21 days", "value": 16.71, "unit": "%"}, {"measurement": "% inhibition, avr. (live offspring per mother)", "setting": "Daphnia magna; DNF avr. medium concentration 1.35 µg/L, conc. of methanol for dosing 1.5 g/L, 21 days, average of 6 vessels", "value": 39.8, "unit": "%"}, {"measurement": "#average live offspring", "setting": "Daphnia magna; DNF avr. medium concentration 1.35 µg/L, conc. of methanol for dosing 1.5 g/L, 21 days, mean of 6 vessels", "value": 52}, {"measurement": "#dead offspring per mother, Total (per vessel)", "setting": "Daphnia magna; [6]", "value": "9 and 12 and 16 and 5 and 8"}, {"measurement": "#live offspring per mother, Total (per vessel)", "setting": "Daphnia magna; [6]", "value": "49 and 74 and 37 and 40 and 53 and 56"}, {"measurement": "% inhibition (live offspring per mother, per vessel)", "setting": "Daphnia magna; [6]", "value": "42.7% and 13.5% and 56.7% and 53.2% and 38.0% and 34.5%"}, {"measurement": "#total live offspring", "setting": "Daphnia magna; DNF avr. medium concentration 1.35 µg/L, conc. of methanol for dosing 1.5 g/L, 21 days, sum of 6 vessels", "value": 309}, {"measurement": "EA50 (effective chemical activity)", "setting": "Daphnia magna; EC50/subcooled liquid solubility, eq 1", "value": 0.032, "unit": "unitless"}, {"measurement": "Classification according to REACH Annex XIII", "setting": "Daphnia magna; chronic EC10 < 10 μg L^–1", "value": "toxic to aquatic life"}, {"measurement": "CTLBB (critical target lipid body burden)", "setting": "Daphnia magna; derived from chronic EC10 using eq 3", "value": 3.4, "unit": "μmol g^-1 octanol"}, {"measurement": "wet weight of parent daphnids, change relative to control", "setting": "Daphnia magna; 0.18 µg/L (Fig. S9)", "value": "+1%"}, {"measurement": "wet weight of parent daphnids, change relative to control", "setting": "Daphnia magna; 0.24 µg/L (Fig. S9)", "value": -2, "unit": "%"}, {"measurement": "wet weight of parent daphnids, change relative to control", "setting": "Daphnia magna; 0.39 µg/L (Fig. S9)", "value": -6, "unit": "%"}, {"measurement": "wet weight of parent daphnids, change relative to control", "setting": "Daphnia magna; 1.16 µg/L (Fig. S9)", "value": 2, "unit": "%"}, {"measurement": "wet weight of parent daphnids, change relative to control", "setting": "Daphnia magna; 1.30 µg/L (Fig. S9)", "value": -6, "unit": "%"}, {"measurement": "wet weight of parent daphnids, change relative to control", "setting": "Daphnia magna; 1.44 µg/L (Fig. S9)", "value": -27, "unit": "%"}, {"measurement": "acute effects on D. magna immobilization", "setting": "D. magna", "value": "no effects were observed"}]}]}
